Experiments:
SH-SY5Y cells [1] = assay: Cytotoxicity in SH-SY5Y neuroblastoma cell line (MTT); conditions: 24 h
Experimental: Viability was measured as MTT reduction in presence of increasing concentrations of derivatives. Values are expressed as LD50 calculated from dose-response curves of four different concentrations.
Cells were cultured in 48-well (SH-SY5Y, 1x10^5 cells per well) or 96-well plates (HepG2, 1x10^5 cells per well) for 24 h. […] Control cells were incubated with the same concentration of DMSO (0.1 % final concentration) without any drug.

Nrf2 = assay: Nrf2-dependent luciferase reporter assay in AREc32 cell line; type: cell-based; conditions: Arec32, 24 h, AREc32 cells, read-out: CD (concentration required to double the luciferase reporter activity)
Experimental: Thereafter, we tested the ability of the compounds to induce the Nrf2 transcription factor. We used an Nrf2-dependent luciferase reporter assay in the AREc32 cell line[45]. Cells were cultured for 24 h and then treated with increasing concentrations of compounds 5a–t (0.3, 3, 10 and 30 μM), including the known inducer sulforaphane, containing an isothiocyanate motive as positive control.
AREc32 cells were plated in 96-well white plates (2 × 10^4 cells/well). After 24 h, cells were incubated with increasing concentrations of each compound in duplicate for 24 h. AREc32 cells express constitutively the plasmid pGL-8xARE that implements 8 copies of the EpRE sequences followed by luciferase reporter gen. Therefore, Nrf2 induction is related to the activation of EpRE sequences, expressing luciferase at the same extent as EpRE sequences are activated. The Luciferase Assay System (Promega E1500), was used according to provider protocol and luminescence was quantified in an Orion II microplate luminometer (Berthold, Germany). Fold induction of luciferase activity was normalized to basal conditions. Data are expressed as CD values, expressing the concentration required to double the luciferase activity. CD values are calculated from dose-response curves generated from fold induction of control conditions vs. inducer concentration and fitted by non-linear regression and data interpolated to 2-fold induction concentration.
Breast cancer cells stably transfected to express luciferase after EpRE sequences MCF-7/AREc32 named AREc32, were kindly provided by Dr. C. Roland Wolf (University of Dundee, UK).^14 AREc32 cells were maintained in DMEM with high glucose-glutamax, supplemented with 10 % FBS, 1 % penicillin-streptomycin (10,000 units), and geneticin (0.8 mg/ml G418) at 37 °C and in a 5 % CO2- air atmosphere.^14
AREc32 cells are constitutively transfected with the pGL-8xARE luciferase reporter gene, inserted after EpRE sequences. Thus, Nrf2 translocation to the nucleus induces the activation of the EpRE sequences, expressing their target phase II antioxidant genes, and expressing luciferase at the same extent.^15 AREc32 cells were plated in 96-well white plates (2X10^4 cells/well). After 24 h, cells were incubated with increasing concentrations of each compound in duplicate for 24 h (dissolved in DMSO to give a final 0.1 % vol/vol concentration of vehicle). Each plate included non-treated cells as basal luciferase expression and tBHQ (10 µM) as positive control. TBHQ is a potent Nrf2 inducer used as control in the development of the AREc32 cells.^14 Transfected clones are selected using G418. AREc32 cells express constitutively the plasmid pGL-8xARE that implements 8 copies of the EpRE sequences followed by a luciferase reporter gene. Therefore, the induction of Nrf2 is proportional to the activation of EpRE sequences, expressing luciferase at the same extent as EpRE sequences are activated. Luciferase production is then assessed by a bioluminescence assay. The Luciferase Assay System (Promega E1500), was used according to the Promega protocol and luminescence was quantified in an Orion II microplate luminometer (Berthold, Germany). Relative Light Units (RLU) were recorded for the contents of each well. Fold induction of luciferase activity was calculated by dividing the RLU obtained for the tests wells for each treatment by the average RLU obtained for the basal conditions. Data are expressed as CD values, expressing the concentration required to double the basal luciferase activity, used to quantify the Nrf2 induction potency. CD values are calculated from dose-response curves generated from fold induction of control conditions vs. inducer concentration and fitted by non-linear regression and data interpolated to value the 2-fold induction concentration, using GraphPad Prism software (San Diego, CA, USA).

SH-SY5Y cells [2] = assay: Neuroprotection against okadaic acid (tau hyperphosphorylation), MTT; type: cell-based; conditions: 1 μM, 24 h pre-incubation, 18 h co-incubation with OA 20 nM
SH-SY5Y cells [3] = assay: Neuroprotection against rotenone/oligomycin A (R/O), MTT; type: cell-based; conditions: 1 μM, 24 h pre-incubation, 24 h co-incubation with rotenone/oligomycin A 30/10 μM
Experimental: Figure 5 Compounds 5a–t exert neuroprotection in in vitro models of AD. […] Then, treatments were removed and cells were co-incubated with each treatment and okadaic acid for 18 h or R/O for 24 h. Cell viability was measured by the MTT reduction assay. Values are expressed as mean ± SEM of five independent experiments in triplicate. ***p < 0.001; **p < 0.01 respect to toxic stimuli treated cells, considered as 0% of protection.
As stated in the Introduction, oxidative stress is considered one of the main causes of neuronal death in AD. Therefore, we were interested in evaluating the potential antioxidant activity of compounds 5a–t in a model of oxidative stress and energy depletion, which in turn increase cell death. For this purpose, we selected the combination of rotenone (30 μM) and oligomycin A (10 μM) (R/O) to induce neurotoxicity as a model system[23][40] to evaluate the potential neuroprotective activity of the compounds. Melatonin, a well-known antioxidant natural compound, was included as a positive control.
(§1) A pre- and co-incubation protocol was followed. Cells were pre-incubated with the corresponding compound at 1 μM in neuroblastoma cells culture medium. After 24 h, medium was removed and replaced with 1% FBS neuroblastoma culture media containing the corresponding compound (1 μM) and the toxic stimuli, the mixture of rotenone and oligomycin A (30 μM/10 μM respectively) or okadaic acid at 20 nM. Cells were co-incubated for further 24 h with the rotenone and oligomycin A solution or 18 h with the okadaic acid solution. Control cells were incubated with the same amount of DMSO without any drug. After the co-incubation period, cell viability was assessed by the MTT-reduction method.
as §1, with “A pre” for “A pre-”, “1 µM” for “1 μM”, “compound at 1 µM” for “compound (1 μM)”, “stimuli, namely a” for “stimuli, the”, “(30 µM / 10 µM” for “(30 μM/10 μM”, “drug. […]” for “drug.”
The percentage of protection was calculated as follows: the percentage of cell survival obtained with the toxic stimuli-treated cells subtracted to 100 was normalized to 100 % of cell death. The percentage of protection was obtained by subtracting the percentage of cell death in presence of the tested compound to 100%.

| SMILES | SH-SY5Y LD50 (SH-SY5Y cells [1]) [µM] | EC50 (Nrf2) [µM] | Percentage of protection against okadaic acid toxicity (SH-SY5Y cells [2]) | Percentage of protection against R/O toxicity (SH-SY5Y cells [3]) [%] |
| --- | --- | --- | --- | --- |
| Cc1ccc(C2C(C#N)=C(N)Oc3[nH]nc(C)c32)cc1 (stereo not drawn) [Compound 5g, 6-Amino-3-methyl-4-(4-methylphenyl)-2,4-dihydropyrano[2,3-c]pyrazole-5-carbonitrile] | > 100 | 25.4 ± 2.5 | – | – |
| Cc1n[nH]c2c1C(c1ccco1)C(C#N)=C(N)O2 (stereo not drawn) [Compound 5q, 6-Amino-4-(furan-2-yl)-3-methyl-2,4-dihydropyrano[2,3-c]pyrazole-5-carbonitrile] | > 100 | 25.2 ± 2.4 | – | – |
| Cc1[nH]nc2c1C(c1cccc([N+](=O)[O-])c1)C(C#N)=C(N)O2 (stereo not drawn) [Compound 5o, 6-Amino-3-methyl-4-(3-nitrophenyl)-2,4-dihydropyrano[2,3-c]pyrazole-5-carbonitrile] | > 100 | 18.9 ± 2.9 | 48% | – |
| Cc1n[nH]c2c1C(c1ccccc1Br)C(C#N)=C(N)O2 (stereo not drawn) [Compound 5l, 6-Amino-4-(2-bromophenyl)-3-methyl-2,4-dihydropyrano[2,3-c]pyrazole-5-carbonitrile] | > 100 | > 30 | – | 24.1 |
| Cc1[nH]nc2c1C(c1ccccc1)C(C#N)=C(N)O2 (stereo not drawn) [Compound 5a, 6-Amino-3-methyl-4-phenyl-2,4-dihydropyrano[2,3-c]pyrazole-5-carbonitrile] | > 100 | 20.5 ± 3.4 | 27.7% | – |
| Cc1[nH]nc2c1C(c1ccccc1[N+](=O)[O-])C(C#N)=C(N)O2 (stereo not drawn) [Compound 5n, 6-Amino-3-methyl-4-(2-nitrophenyl)-2,4-dihydropyrano[2,3-c]pyrazole-5-carbonitrile] | > 100 | 11.3 ± 5.5 | 34.7% | – |
| COc1ccccc1C1C(C#N)=C(N)Oc2n[nH]c(C)c21 (stereo not drawn) [Compound 5b, 6-Amino-4-(2-methoxyphenyl)-3-methyl-2,4-dihydropyrano[2,3-c]pyrazole-5-carbonitrile] | > 100 | > 30 | – | 39.1 |
| Cc1[nH]nc2c1C(c1cccnc1)C(C#N)=C(N)O2 (stereo not drawn) [Compound 5s, 6-Amino-3-methyl-4-(pyridin-3-yl)-2,4-dihydropyrano[2,3-c]pyrazole-5-carbonitrile] | > 100 | 8.91 ± 2.2 | – | 57.9 |
| Cc1[nH]nc2c1C(c1cccc(Cl)c1)C(C#N)=C(N)O2 (stereo not drawn) [Compound 5j, 6-Amino-4-(3-chlorophenyl)-3-methyl-2,4-dihydropyrano[2,3-c]pyrazole-5-carbonitrile] | > 100 | 5.38 ± 0.5 | – | – |
| COc1ccc(C2C(C#N)=C(N)Oc3n[nH]c(C)c32)cc1 (stereo not drawn) [Compound 5d, 6-Amino-4-(4-methoxyphenyl)-3-methyl-2,4-dihydropyrano[2,3-c]pyrazole-5-carbonitrile] | > 100 | 25.3 ± 2.4 | – | 38.8 |
| Cc1n[nH]c2c1C(c1ccccc1Cl)C(C#N)=C(N)O2 (stereo not drawn) [Compound 5i, 6-Amino-4-(2-chlorophenyl)-3-methyl-2,4-dihydropyrano[2,3-c]pyrazole-5-carbonitrile] | > 100 | 23.5 ± 3.2 | – | – |
| Cc1n[nH]c2c1C(c1cccs1)C(C#N)=C(N)O2 (stereo not drawn) [Compound 5r, 6-Amino-3-methyl-4-(thiophen-2-yl)-2,4-dihydropyrano[2,3-c]pyrazole-5-carbonitrile] | > 100 | 17.6 ± 8.4 | – | – |
| Cc1n[nH]c2c1C(c1ccc(Cl)cc1)C(C#N)=C(N)O2 (stereo not drawn) [Compound 5k, 6-Amino-4-(4-chlorophenyl)-3-methyl-2,4-dihydropyrano[2,3-c]pyrazole-5-carbonitrile] | > 100 | 8.31 ± 1.5 | – | – |
| Cc1cccc(C2C(C#N)=C(N)Oc3n[nH]c(C)c32)c1 (stereo not drawn) [Compound 5f, 6-Amino-3-methyl-4-(3-methylphenyl)-2,4-dihydropyrano[2,3-c]pyrazole-5-carbonitrile] | > 100 | 14.1 ± 2.1 | over 50% | – |
| Cc1[nH]nc2c1C(c1ccc([N+](=O)[O-])cc1)C(C#N)=C(N)O2 (stereo not drawn) [Compound 5p, 6-Amino-3-methyl-4-(4-nitrophenyl)-2,4-dihydropyrano[2,3-c]pyrazole-5-carbonitrile] | > 100 | 15 ± 4.3 | – | – |
| Cc1ccccc1C1C(C#N)=C(N)Oc2[nH]nc(C)c21 (stereo not drawn) [Compound 5e, 6-Amino-3-methyl-4-(2-methylphenyl)-2,4-dihydropyrano[2,3-c]pyrazole-5-carbonitrile] | > 100 | > 30 | – | – |
| Cc1n[nH]c2c1C(c1ccc(F)cc1)C(C#N)=C(N)O2 (stereo not drawn) [Compound 5h, 6-Amino-4-(4-fluorophenyl)-3-methyl-2,4-dihydropyrano[2,3-c]pyrazole-5-carbonitrile] | > 100 | 14.6 ± 4 | – | – |

Source: article PMC5374710, “Discovery of the first dual GSK3β inhibitor/Nrf2 inducer. A new multitarget therapeutic strategy for Alzheimer’s disease” (Scientific Reports, 2017)
